Reference: patent publication US20050112573A1, “Method of detecting toxic substance” (priority 2001, published 2005)

Tested on: yeast genes (level of expressed mRNA)
Test: DNA chip analysis of expressed mRNA of yeast genes after 2 h culture with a toxic chemical substance
Format: cell-based, Saccharomyces cerevisiae S288C
Conditions: for The level of expressed mRNA in the presence of chemical substance/ (ratio to absence of chemical substance): stress protein genes, DNA chip; for The level of expressed mRNA in the presence of chemical substance/ in its absence, gene YDL078C: yeast gene YDL078C
Protocol: Yeast (Saccharomyces cerevtisiae S288C (α SUC2mal mel gap2 CUP1)) were cultured at 25° C. on YPD medium (yeast extract 1%, polypepton 2%, glucose 2%). One of toxic chemical substances was added to the cell at logarithmic growth phase, and the cell was further cultured for two hours. Cell was cultured without any chemical substance in the same condition, and was used as control. Concentrations of the chemical substances were defined to inhibit the growth of the yeast but not lead to death.
After the completion of cultivation, the culture was centrifuged to collect the cells. To the cells, sodium acetate buffer (50 mM sodium acetate, 10 mM EDTA, 1% SDS) was added, and the mixture was shaken at 65° C. for five minutes, followed by returning to room temperature, and obtaining the supernatant, which procedure was repeated two times. To the supernatant, ½ amount of a solution of phenol/chloroform was added, and the mixture was centrifuged to give a supernatant, which was added with an equal amount of chloroform, and the mixture was centrifuged to give a supernatant. To the supernatant, an equal amount of isopropanol containing 0.3 M sodium acetate was added, and the mixture was allowed to stand at room temperature for 30 minutes, after which the mixture was centrifuged to give a sediment of the whole RNAs. Seventy % ethanol was added to the sediment, and the mixture was again centrifuged to give a sediment, which was then dried and dissolved in water. mRNA was isolated from the whole RNAs as followings. In view of the fact that a poly A chain is attached to the 3′ terminus of mRNA, a polynucleotide having a poly T structure which was immobilized on the surface of latex beads was used to trap the mRNA, and then the mRNA was washed and eluted with spine column (Oligotex-dT30<Super>mRNA Purification Kit, Takara). Reverse transcription of the mRNA was conducted with a reverse transcriptase (Super Script II Reverse Transcriptase; catalogue No. 18064-014, GibcoBRL) using fluorescence-labeled nucleotides to give cDNAs that were introduced with Cy3-dUTP or Cy5-dUTP during the reverse transcription.
The labeled cDNAs were dissolved in TE buffer (10 mM Tris-HCl/1 mM EDTA, pH8.0), and the solution was dropped on the DNA chip containing the whole genes of yeast (DNA Chip Research Inc. Japan) so that the cDNAs were hybridized on the DNA chip at 65° C. for over 12 hours. The fluoresces intensity of the DNA chip was read with a scanner, and the ratio relative to the fluorescence intensity resulting from the absence of chemical substance was estimated as the following, which is shown in Tables 1 to 9: [formula]
In the Tables, “Intensity” indicated in the rightmost column is a value of the level of expressed mRNA of each gene in control cells as divided by the average level of the expressions of the whole genes.

## COc1cc(CNC(=O)CCCCC=CC(C)C)ccc1O [(12), 8-methyl-N-vanillyl-6-nonenamide]
Gene YOR344C
  level of expressed mRNA in the presence of chemical substance/in its absence: 1.3
Gene YOR347C
  level of expressed mRNA in the presence of chemical substance/in its absence: 1.2
Gene YPL005W
  The level of expressed mRNA in the presence of chemical substance/absence: YPL005W: 0.7
Gene YPL017C
  level of expressed mRNA in the presence of chemical substance/in its absence: 1.0
Gene YPL107W, DNA chip fluorescence ratio to control without chemical, 2 hours culture with chemical, growth-inhibiting non-lethal concentration
  The level of expressed mRNA in the presence of chemical substance / the level in the absence of chemical substance, yeast gene YPL107W: 0.7
Gene YPL138C, DNA chip fluorescence ratio to control without chemical, 2 hours culture with chemical, growth-inhibiting non-lethal concentration
  The level of expressed mRNA in the presence of chemical substance / the level in the absence of chemical substance, yeast gene YPL138C: 0.9
Gene YPL150W
  The level of expressed mRNA in the presence of chemical substance/absence: YPL150W: 1.0
Gene YPL151C
  The level of expressed mRNA in the presence of chemical substance/absence: YPL151C: 0.8
Gene YPL152W
  The level of expressed mRNA in the presence of chemical substance/absence: YPL152W: 0.9
Gene YPL168W
  The level of expressed mRNA in the presence of chemical substance/absence: YPL168W: 0.7
Gene YPL180W
  The level of expressed mRNA in the presence of chemical substance/absence: YPL180W: 0.8
Gene YPL188W
  The level of expressed mRNA in the presence of chemical substance/absence: YPL188W: 0.6
Gene YPL221W
  The level of expressed mRNA in the presence of chemical substance/absence: YPL221W: 0.8
Gene YPL225W
  The level of expressed mRNA in the presence of chemical substance/absence: YPL225W: 0.7
Gene YPL249C
  The level of expressed mRNA in the presence of chemical substance/absence: YPL249C: 0.9
Gene YPL260W
  The level of expressed mRNA in the presence of chemical substance/absence: YPL260W: 0.8
Gene YPL265W
  level of expressed mRNA in the presence of chemical substance/in its absence: 0.9
Gene YPR006C
  level of expressed mRNA in the presence of chemical substance/in its absence: 1.1
Gene YPR026W
  level of expressed mRNA in the presence of chemical substance/in its absence: 1.2
Gene YPR049C
  The level of expressed mRNA in the presence of chemical substance/absence: YPR049C: 0.9
Gene YPR061C
  The level of expressed mRNA in the presence of chemical substance/absence: YPR061C: 0.8
Gene YPR093C
  The level of expressed mRNA in the presence of chemical substance/absence: YPR093C: 0.9
Gene YPR146C
  The level of expressed mRNA in the presence of chemical substance/absence: YPR146C: 0.8
Gene YPR148C
  The level of expressed mRNA in the presence of chemical substance/absence: YPR148C: 1.2
Gene YPR150W
  The level of expressed mRNA in the presence of chemical substance/absence: YPR150W: 0.6
Gene YPR158W
  The level of expressed mRNA in the presence of chemical substance/absence: YPR158W: 0.6
Gene YPR169W
  The level of expressed mRNA in the presence of chemical substance/absence: YPR169W: 0.5
Gene YPR172W
  The level of expressed mRNA in the presence of chemical substance/absence: YPR172W: 0.8
Gene YPR174C
  The level of expressed mRNA in the presence of chemical substance/absence: YPR174C: 1.1
Yeast gene YAR010C
  The level of expressed mRNA in the presence of chemical substance/The level of expressed mRNA in the absence of chemical substance: 1.0
Yeast gene YBL005W-A
  The level of expressed mRNA in the presence of chemical substance/The level of expressed mRNA in the absence of chemical substance: 1.6
Yeast gene YBL038W, mitochondria-located protein genes, 2 h culture with chemical
  The level of expressed mRNA in the presence of chemical substance/ (ratio to absence), gene YBL038W: 0.7
Yeast gene YBL041W
  The level of expressed mRNA in the presence of chemical substance/The level of expressed mRNA in the absence of chemical substance: 1.6
Yeast gene YBL043W
  The level of expressed mRNA in the presence of chemical substance/The level of expressed mRNA in the absence of chemical substance: 0.9
Yeast gene YBL078C
  The level of expressed mRNA in the presence of chemical substance/The level of expressed mRNA in the absence of chemical substance: 3.1
Yeast gene YBL093C
  The level of expressed mRNA in the presence of chemical substance/ (ratio to absence of chemical substance): 1.1
Yeast gene YBR036C, ratio of DNA chip fluorescence intensity to that without chemical substance
  The level of expressed mRNA in the presence of chemical substance/ (in its absence), gene YBR036C: 1.0
Yeast gene YBR044C
  The level of expressed mRNA in the presence of chemical substance/ (ratio to absence of chemical substance): 0.8
Yeast gene YBR122C, mitochondria-located protein genes, 2 h culture with chemical
  The level of expressed mRNA in the presence of chemical substance/ (ratio to absence), gene YBR122C: 0.7
Yeast gene YBR214W
  The level of expressed mRNA in the presence of chemical substance/The level of expressed mRNA in the absence of chemical substance: 1.2
Yeast gene YBR251W, mitochondria-located protein genes, 2 h culture with chemical
  The level of expressed mRNA in the presence of chemical substance/ (ratio to absence), gene YBR251W: 1.1
Yeast gene YBR298C, ratio of DNA chip fluorescence intensity to that without chemical substance
  The level of expressed mRNA in the presence of chemical substance/ (in its absence), gene YBR298C: 1.1
Yeast gene YCL020W
  The level of expressed mRNA in the presence of chemical substance/The level of expressed mRNA in the absence of chemical substance: 1.5
Yeast gene YCL027W
  The level of expressed mRNA in the presence of chemical substance/The level of expressed mRNA in the absence of chemical substance: 0.8
Yeast gene YCR004C
  The level of expressed mRNA in the presence of chemical substance/The level of expressed mRNA in the absence of chemical substance: 0.8
Yeast gene YCR046C, mitochondria-located protein genes, 2 h culture with chemical
  The level of expressed mRNA in the presence of chemical substance/ (ratio to absence), gene YCR046C: 1.1
Yeast gene YCR071C
  The level of expressed mRNA in the presence of chemical substance/The level of expressed mRNA in the absence of chemical substance: 1.1
Yeast gene YCR083W, mitochondria-located protein genes, 2 h culture with chemical
  The level of expressed mRNA in the presence of chemical substance/ (ratio to absence), gene YCR083W: 1.1
Yeast gene YCR083W
  The level of expressed mRNA in the presence of chemical substance/ (ratio to absence of chemical substance): 1.1
Yeast gene YCR088W
  The level of expressed mRNA in the presence of chemical substance/The level of expressed mRNA in the absence of chemical substance: 1.3
Yeast gene YDL008W
  The level of expressed mRNA in the presence of chemical substance/The level of expressed mRNA in the absence of chemical substance: 1.2
Yeast gene YDL067C, energy system protein genes, 2 h culture with the chemical, ratio to control without chemical
  The level of expressed mRNA in the presence of chemical substance/ in its absence, gene YDL067C: 1.0
Yeast gene YDL067C, mitochondria-located protein genes, 2 h culture with chemical
  The level of expressed mRNA in the presence of chemical substance/ (ratio to absence), gene YDL067C: 1.0
Energy system protein genes, 2 h culture with the chemical, ratio to control without chemical
  The level of expressed mRNA in the presence of chemical substance/ in its absence, gene YDL078C: 0.8
Ratio of DNA chip fluorescence intensity to that without chemical substance
  The level of expressed mRNA in the presence of chemical substance/ in its absence, gene YDL078C: 0.8
Yeast gene YDL215C, ratio of DNA chip fluorescence intensity to that without chemical substance
  The level of expressed mRNA in the presence of chemical substance/ (in its absence), gene YDL215C: 0.8
Yeast gene YDL238C
  The level of expressed mRNA in the presence of chemical substance/The level of expressed mRNA in the absence of chemical substance: 0.9
Yeast gene YDR055W
  The level of expressed mRNA in the presence of chemical substance/The level of expressed mRNA in the absence of chemical substance: 1.4
